{"source": "ChEMBL document CHEMBL1201862", "about": "“PubChem BioAssay data set” (2004)", "key": {"[1]": {"target": "T1, Sentrin-specific protease 7 (Homo sapiens, UniProt Q9BQF6)", "T1 sequence (Q9BQF6 whole entry)": "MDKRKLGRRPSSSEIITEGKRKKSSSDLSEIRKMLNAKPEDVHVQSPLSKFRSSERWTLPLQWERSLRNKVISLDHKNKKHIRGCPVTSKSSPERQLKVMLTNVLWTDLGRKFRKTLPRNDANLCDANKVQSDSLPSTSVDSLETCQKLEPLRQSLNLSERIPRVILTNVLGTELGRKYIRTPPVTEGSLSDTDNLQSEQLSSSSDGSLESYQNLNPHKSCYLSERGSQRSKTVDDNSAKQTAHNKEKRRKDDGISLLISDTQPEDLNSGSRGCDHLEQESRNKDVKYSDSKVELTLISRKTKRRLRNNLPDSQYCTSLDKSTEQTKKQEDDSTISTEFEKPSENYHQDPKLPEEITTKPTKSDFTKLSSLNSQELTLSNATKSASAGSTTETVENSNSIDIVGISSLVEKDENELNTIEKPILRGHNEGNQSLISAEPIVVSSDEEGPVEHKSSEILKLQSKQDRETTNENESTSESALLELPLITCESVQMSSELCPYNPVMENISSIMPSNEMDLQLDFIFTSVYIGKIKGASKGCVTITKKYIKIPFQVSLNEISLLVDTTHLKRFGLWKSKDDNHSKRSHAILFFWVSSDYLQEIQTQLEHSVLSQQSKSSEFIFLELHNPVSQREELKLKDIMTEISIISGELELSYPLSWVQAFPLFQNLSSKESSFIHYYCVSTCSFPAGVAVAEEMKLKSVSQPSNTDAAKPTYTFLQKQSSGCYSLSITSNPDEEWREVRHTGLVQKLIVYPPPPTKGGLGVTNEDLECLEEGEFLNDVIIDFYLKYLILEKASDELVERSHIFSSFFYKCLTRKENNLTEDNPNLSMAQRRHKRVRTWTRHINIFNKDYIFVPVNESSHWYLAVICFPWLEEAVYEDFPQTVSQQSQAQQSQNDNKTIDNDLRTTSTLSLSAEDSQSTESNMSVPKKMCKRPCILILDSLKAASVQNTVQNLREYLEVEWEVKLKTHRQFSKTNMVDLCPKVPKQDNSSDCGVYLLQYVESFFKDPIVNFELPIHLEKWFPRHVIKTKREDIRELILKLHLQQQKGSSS", "assay": "SENP7 protease inhibitors, SAR follow-up, biochemical, luminescence, set 2 (AID 588600)", "assay_type": "functional"}, "[2]": {"target": "T1, Sentrin-specific protease 7", "assay": "SENP7 protease inhibitors, SAR follow-up, biochemical, luminescence (AID 504497)", "assay_type": "functional"}, "[3]": {"target": "T2, Sentrin-specific protease 6 (Homo sapiens, UniProt Q9GZR1)", "T2 sequence (Q9GZR1 whole entry)": "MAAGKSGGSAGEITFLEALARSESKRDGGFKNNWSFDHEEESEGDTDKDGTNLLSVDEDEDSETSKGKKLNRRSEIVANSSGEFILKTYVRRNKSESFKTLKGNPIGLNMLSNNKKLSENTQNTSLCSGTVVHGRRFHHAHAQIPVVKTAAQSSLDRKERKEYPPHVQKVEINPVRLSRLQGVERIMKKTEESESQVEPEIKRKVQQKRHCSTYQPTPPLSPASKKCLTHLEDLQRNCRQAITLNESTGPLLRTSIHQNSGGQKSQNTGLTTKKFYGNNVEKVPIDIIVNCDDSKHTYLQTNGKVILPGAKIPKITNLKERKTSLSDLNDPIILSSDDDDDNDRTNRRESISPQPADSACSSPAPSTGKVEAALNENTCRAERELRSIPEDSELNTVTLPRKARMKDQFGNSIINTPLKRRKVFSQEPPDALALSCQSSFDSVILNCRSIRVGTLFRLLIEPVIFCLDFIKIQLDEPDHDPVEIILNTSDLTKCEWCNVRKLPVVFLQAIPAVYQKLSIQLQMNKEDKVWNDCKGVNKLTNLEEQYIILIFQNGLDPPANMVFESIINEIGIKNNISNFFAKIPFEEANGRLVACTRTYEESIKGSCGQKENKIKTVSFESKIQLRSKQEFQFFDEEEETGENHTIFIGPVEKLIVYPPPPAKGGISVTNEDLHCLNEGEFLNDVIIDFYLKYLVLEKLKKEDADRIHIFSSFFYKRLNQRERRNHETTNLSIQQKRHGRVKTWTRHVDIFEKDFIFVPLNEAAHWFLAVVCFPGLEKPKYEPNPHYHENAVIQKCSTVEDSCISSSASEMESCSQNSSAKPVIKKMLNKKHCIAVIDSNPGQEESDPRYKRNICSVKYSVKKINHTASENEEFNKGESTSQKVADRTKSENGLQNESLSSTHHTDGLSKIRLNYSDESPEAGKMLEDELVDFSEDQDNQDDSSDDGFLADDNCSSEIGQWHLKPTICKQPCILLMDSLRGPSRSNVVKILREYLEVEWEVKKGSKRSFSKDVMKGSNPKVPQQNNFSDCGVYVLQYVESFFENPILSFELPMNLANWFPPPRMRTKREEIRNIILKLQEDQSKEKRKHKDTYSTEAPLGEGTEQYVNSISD", "assay": "SENP6 protease inhibitors, SAR follow-up, biochemical, luminescence, set 2 (AID 588598)", "assay_type": "functional"}, "Caspase-3 [4]": {"target": "T3, Caspase-3 (Homo sapiens, UniProt P42574)", "T3 sequence (P42574 whole entry)": "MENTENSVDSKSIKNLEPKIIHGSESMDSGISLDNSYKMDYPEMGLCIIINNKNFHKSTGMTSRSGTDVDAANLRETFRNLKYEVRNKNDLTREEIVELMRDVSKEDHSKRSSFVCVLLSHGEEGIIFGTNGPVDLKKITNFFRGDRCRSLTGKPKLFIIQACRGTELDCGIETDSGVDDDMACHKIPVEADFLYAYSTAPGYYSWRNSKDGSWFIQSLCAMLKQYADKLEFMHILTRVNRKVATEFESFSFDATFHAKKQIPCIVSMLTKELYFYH", "assay": "caspase-3 inhibitors as off-family protease, SAR follow-up, selectivity assay for SENP protease inhibitor project, biochemical, luminescence, set 2 (AID 588599)", "assay_type": "functional"}, "[5]": {"target": "T4, Sentrin-specific protease 8 (Homo sapiens, UniProt Q96LD8)", "T4 sequence (Q96LD8 whole entry)": "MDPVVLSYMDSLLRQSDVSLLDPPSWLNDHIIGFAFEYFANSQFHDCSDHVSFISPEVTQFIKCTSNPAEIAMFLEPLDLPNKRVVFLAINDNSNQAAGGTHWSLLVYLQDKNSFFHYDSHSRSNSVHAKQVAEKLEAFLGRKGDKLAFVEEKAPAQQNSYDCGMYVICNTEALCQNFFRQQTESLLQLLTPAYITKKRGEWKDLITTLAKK", "assay": "SENP8 protease inhibitors, SAR follow-up, biochemical, luminescence (AID 504501)", "assay_type": "functional"}, "[6]": {"target": "T4, Sentrin-specific protease 8", "assay": "SENP8 protease inhibitors, SAR follow-up, biochemical, luminescence, set 2 (AID 588601)", "assay_type": "functional"}, "Caspase-3 [7]": {"target": "T3, Caspase-3", "assay": "SAR Analysis of small molecule inhibitors of Sentrin-specific proteases (SENPs) using a Caspase-3 Selectivity assay. [Related pubchem assays (depositor defined):AID2540, AID2599, AID434973, AID489001]", "assay_type": "functional"}, "[8]": {"target": "T2, Sentrin-specific protease 6", "assay": "SAR Analysis of small molecule inhibitors of Sentrin-specific protease 6 (SENP6) using a Luminescent assay. [Related pubchem assays (depositor defined):AID2582, AID2599]", "assay_type": "functional"}, "[9]": {"target": "T5, Endoribonuclease toxin MazF (Escherichia coli K-12, UniProt P0AE70)", "T5 sequence (P0AE70 whole entry)": "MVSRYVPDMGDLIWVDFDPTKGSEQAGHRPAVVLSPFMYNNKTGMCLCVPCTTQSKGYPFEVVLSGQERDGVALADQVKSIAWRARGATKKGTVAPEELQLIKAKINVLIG", "assay": "fluorescent RNA oligo signal without MazF, dose response, counter-screen for MazEF activator project, biochemical, fluorescence, single-stranded RNase substrate (AID 588502)", "assay_type": "functional"}, "MEF": {"system": "MEF", "assay": "SAR analysis of small molecule cytotoxicity of MazEF TA System activators in embryonic fibroblast (MEF) cells. [Related pubchem assays (depositor defined):AID504720, AID504743]", "assay_type": "functional", "conditions": "Mus musculus"}, "[10]": {"target": "T5, Endoribonuclease toxin MazF", "assay": "MazF toxin RNase activators, dose response, biochemical, fluorescence, single-stranded RNA substrate, uHTS hits (AID 588481)", "assay_type": "functional"}, "[11]": {"target": "T5, Endoribonuclease toxin MazF", "assay": "SAR analysis of small molecule activators of the MazEF TA System via a fluorescence-based single-stranded RNase assay counterscreen. [Related pubchem assays (depositor defined):AID504720, AID504743]", "assay_type": "functional"}, "[12]": {"target": "T5, Endoribonuclease toxin MazF", "assay": "MazF endoribonuclease activators, SAR follow-up, biochemical, fluorescence, single-stranded RNA substrate (AID 588603)", "assay_type": "functional"}, "Phospholipase D1": {"target": "Phospholipase D1 (Homo sapiens, UniProt Q13393)", "sequence (Q13393 whole entry)": "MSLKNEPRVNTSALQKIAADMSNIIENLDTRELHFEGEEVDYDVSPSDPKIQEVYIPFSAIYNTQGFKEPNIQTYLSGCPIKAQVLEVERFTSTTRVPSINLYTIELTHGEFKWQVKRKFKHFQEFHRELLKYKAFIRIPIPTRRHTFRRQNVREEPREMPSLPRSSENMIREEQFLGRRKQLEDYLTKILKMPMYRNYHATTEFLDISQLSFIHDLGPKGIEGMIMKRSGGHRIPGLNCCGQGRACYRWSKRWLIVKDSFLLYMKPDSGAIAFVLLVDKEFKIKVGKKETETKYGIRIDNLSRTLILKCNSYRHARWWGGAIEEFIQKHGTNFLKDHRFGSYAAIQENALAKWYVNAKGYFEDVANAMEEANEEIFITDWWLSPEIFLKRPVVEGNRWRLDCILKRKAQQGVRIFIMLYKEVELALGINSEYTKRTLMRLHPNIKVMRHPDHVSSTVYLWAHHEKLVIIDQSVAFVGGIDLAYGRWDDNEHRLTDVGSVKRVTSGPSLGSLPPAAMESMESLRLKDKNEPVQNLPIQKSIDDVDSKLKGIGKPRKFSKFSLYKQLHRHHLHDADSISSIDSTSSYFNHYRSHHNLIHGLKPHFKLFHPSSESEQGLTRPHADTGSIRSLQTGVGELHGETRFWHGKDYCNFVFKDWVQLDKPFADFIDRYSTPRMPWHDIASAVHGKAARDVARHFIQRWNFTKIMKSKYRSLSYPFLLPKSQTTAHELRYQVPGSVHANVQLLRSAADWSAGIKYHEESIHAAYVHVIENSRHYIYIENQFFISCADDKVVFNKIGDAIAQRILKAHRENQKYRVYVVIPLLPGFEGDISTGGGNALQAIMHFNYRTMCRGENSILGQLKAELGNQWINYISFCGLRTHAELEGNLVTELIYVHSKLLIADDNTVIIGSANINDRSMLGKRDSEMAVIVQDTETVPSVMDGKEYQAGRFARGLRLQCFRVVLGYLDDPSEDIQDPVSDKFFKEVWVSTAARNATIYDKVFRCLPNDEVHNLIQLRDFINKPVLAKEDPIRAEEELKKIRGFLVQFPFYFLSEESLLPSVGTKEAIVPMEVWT", "assay": "PLD1 inhibitor potency in cells, dose response (AID 602151);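 also: cellular PLD1 assay in Calu-1 cells stimulated with PMA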", "assay_type": "functional"}, "Phospholipase D2": {"target": "Phospholipase D2 (Homo sapiens, UniProt O14939)", "sequence (O14939 whole entry)": "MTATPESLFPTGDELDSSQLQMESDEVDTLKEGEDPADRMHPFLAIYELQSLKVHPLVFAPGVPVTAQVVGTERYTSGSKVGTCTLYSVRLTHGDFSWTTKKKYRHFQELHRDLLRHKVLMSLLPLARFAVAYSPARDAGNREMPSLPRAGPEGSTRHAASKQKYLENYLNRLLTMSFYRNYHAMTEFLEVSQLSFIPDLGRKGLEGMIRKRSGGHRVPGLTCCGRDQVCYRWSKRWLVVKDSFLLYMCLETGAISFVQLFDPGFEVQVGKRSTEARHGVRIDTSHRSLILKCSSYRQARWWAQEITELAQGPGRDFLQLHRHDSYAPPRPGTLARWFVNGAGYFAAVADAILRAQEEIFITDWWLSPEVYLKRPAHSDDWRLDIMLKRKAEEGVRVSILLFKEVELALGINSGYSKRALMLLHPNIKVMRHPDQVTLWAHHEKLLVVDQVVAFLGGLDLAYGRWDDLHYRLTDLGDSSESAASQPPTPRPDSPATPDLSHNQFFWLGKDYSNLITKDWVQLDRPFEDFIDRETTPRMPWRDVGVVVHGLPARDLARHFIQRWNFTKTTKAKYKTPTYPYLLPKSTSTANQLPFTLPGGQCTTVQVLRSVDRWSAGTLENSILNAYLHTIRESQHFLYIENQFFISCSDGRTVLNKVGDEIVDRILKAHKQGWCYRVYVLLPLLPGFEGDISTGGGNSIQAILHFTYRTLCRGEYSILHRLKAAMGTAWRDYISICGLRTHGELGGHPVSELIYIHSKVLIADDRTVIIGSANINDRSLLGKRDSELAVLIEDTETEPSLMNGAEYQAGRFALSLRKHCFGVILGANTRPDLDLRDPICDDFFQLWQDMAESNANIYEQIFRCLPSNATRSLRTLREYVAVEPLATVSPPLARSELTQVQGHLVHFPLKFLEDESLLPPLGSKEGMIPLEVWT", "assay": "PLD2 inhibitor potency in cells, dose response (AID 602147);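 also: cellular assay in HEK293 cells overexpressing GFP-tagged PLD2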", "assay_type": "functional"}, "SN12K1": {"system": "SN12K1", "assay": "cells", "assay_type": "functional", "conditions": "Homo sapiens, SN12K1"}, "Large T antigen": {"target": "Large T antigen (Simian virus 40, UniProt P03070)", "sequence (P03070 whole entry)": "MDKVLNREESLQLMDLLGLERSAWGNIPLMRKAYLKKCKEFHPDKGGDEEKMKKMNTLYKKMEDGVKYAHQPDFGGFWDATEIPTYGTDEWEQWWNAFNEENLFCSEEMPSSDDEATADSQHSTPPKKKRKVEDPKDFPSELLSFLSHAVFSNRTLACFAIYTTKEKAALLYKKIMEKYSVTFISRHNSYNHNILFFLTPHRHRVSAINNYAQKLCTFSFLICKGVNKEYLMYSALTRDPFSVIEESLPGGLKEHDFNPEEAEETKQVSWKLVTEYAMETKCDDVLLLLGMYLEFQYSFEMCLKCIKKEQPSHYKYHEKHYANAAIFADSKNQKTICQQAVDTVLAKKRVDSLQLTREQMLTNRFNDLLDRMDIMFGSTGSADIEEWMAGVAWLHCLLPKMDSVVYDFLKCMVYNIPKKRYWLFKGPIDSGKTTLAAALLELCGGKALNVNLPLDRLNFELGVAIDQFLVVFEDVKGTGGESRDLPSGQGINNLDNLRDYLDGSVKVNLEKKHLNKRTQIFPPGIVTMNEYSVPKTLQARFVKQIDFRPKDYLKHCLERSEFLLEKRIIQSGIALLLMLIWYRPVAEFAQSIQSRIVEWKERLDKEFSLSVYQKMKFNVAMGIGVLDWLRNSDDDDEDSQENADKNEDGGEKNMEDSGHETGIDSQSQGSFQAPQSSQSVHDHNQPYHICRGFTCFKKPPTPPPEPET", "assay_type": "functional, Betapolyomavirus macacae"}, "P388/ADR": {"system": "P388/ADR", "assay": "cells", "assay_type": "functional", "conditions": "Mus musculus, P388/ADR"}, "[13]": {"target": "Dual specificity tyrosine-phosphorylation-regulated kinase 1A (Rattus norvegicus, UniProt Q63470)", "assay_type": "biochemical, Homo sapiens"}, "[14]": {"assay": "ADP-Glo luciferase interference without Dyrk1A, dose response, artefact control for Dyrk1A inhibitor project, biochemical, luminescence, cherry-pick, set 02 (AID 588348)"}, "P388": {"system": "P388", "assay": "cells", "assay_type": "functional", "conditions": "Mus musculus, P388"}, "[15]": {"target": "FAD-linked sulfhydryl oxidase ALR (Homo sapiens, UniProt P55789)", "sequence (P55789 whole entry)": "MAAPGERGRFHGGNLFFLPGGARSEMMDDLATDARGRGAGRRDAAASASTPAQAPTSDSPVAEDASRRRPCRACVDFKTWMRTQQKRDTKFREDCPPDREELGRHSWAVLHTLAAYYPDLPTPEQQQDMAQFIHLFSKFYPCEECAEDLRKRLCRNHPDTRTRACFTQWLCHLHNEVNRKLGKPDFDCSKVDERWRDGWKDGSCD", "assay": "inhibitors of human ALR sulfhydryl oxidase, dose response, biochemical, H2O2 detection, luminescence, cherry-pick (AID 493248)"}}, "note": "Activity calls are given as the source filed them.", "data": [{"smiles": "O=C(Nc1nc2ccc(Cl)cc2s1)c1ccco1", "values": [{"measurement": "IC50", "setting": "[1]", "value": "1.23 µM (active)"}, {"measurement": "IC50", "setting": "[2]", "value": "1 µM (active)"}, {"measurement": "IC50", "setting": "[3]", "value": "1.16 µM (active)"}, {"measurement": "IC50", "setting": "Caspase-3 [4]", "value": "1.42 µM (active)"}, {"measurement": "IC50", "setting": "[5]", "value": "1.7 µM (active)"}, {"measurement": "IC50", "setting": "[6]", "value": "1.08 µM (active)"}, {"measurement": "IC50", "setting": "Caspase-3 [7]", "value": "1.5 µM (active)"}, {"measurement": "IC50", "setting": "[8]", "value": "1.4 µM (active)"}]}, {"smiles": "Cc1ccc(CNC(=O)c2ccc(CNS(=O)(=O)c3ccc4c(c3)C(C)(C)C(=O)N4C)cc2)o1", "values": [{"measurement": "EC50", "setting": "[9]", "value": "> 99 µM (inactive)"}, {"measurement": "CC50", "setting": "MEF", "value": "> 99 µM (inactive)"}, {"measurement": "EC50", "setting": "[10]", "value": "9.43 µM (active)"}, {"measurement": "EC50", "setting": "[11]", "value": "> 99 µM (inactive)"}, {"measurement": "EC50", "setting": "[12]", "value": "9.72 µM (active)"}]}, {"smiles": "C[C@@H](CN1CCC(n2c(=O)[nH]c3ccccc32)CC1)NC(=O)c1ccc(C(F)(F)F)cc1", "values": [{"measurement": "IC50", "setting": "Phospholipase D1", "value": "0.121 µM (active)"}, {"measurement": "IC50", "setting": "Phospholipase D2", "value": "20 µM (active)"}]}, {"smiles": "Oc1cc(O)cc(/C=C/c2ccc(O)c(O)c2)c1", "note": "[PICEATANNOL]", "values": [{"measurement": "EC50", "setting": "[9]", "value": "> 99 µM (inactive)"}, {"measurement": "GI50", "setting": "SN12K1", "value": "3.94 µM (inactive)"}, {"measurement": "EC50", "setting": "[10]", "value": "> 99 µM (inactive)"}, {"measurement": "IC50", "setting": "Large T antigen", "value": "16.4 µM (active)"}, {"measurement": "GI50", "setting": "P388/ADR", "value": "7.76 µM (inactive)"}, {"measurement": "AC50", "setting": "[13]", "value": "7.53 µM (active)"}, {"measurement": "AC50", "setting": "[14]", "value": "27.7 µM (active)"}, {"measurement": "GI50", "setting": "P388", "value": "5.48 µM (inactive)"}, {"measurement": "AC50", "setting": "[15]", "value": "0.689 µM (active)"}]}]}
